Patent publication US20230233569A1 (Revolution Medicines, Inc., priority 2020, published 2023)
Like-named read-outs stand apart in the source and are kept apart here.

Columns and labels:
[1] = target: KRAS G13D (Homo sapiens, UniProt P01116+P62937, G13D); assay: Disruption of BRAF RBD interaction with Ras (FRET / MOA assay, with Cyclophilin A); assay type: biochemical
Outline: (§1)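 TR-FRET: nucleotide-loaded K-Ras mutant or WT with Cyclophilin A and BRAF RBD, compound 10-point 3-fold from 30 μM final, 3 h at 25° C, then anti-His Eu (10 nM) and anti-GST APC (50 nM) for 1.5 h. Decreased FRET ratio versus DMSO gives IC50.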

[2] = target: KRAS G12V (Homo sapiens, UniProt P01116+P62937, G12V); assay: as above; assay type: biochemical
Chain of KRAS G12V (P01116 1-169 isoform P01116-2 G12V limits assumed): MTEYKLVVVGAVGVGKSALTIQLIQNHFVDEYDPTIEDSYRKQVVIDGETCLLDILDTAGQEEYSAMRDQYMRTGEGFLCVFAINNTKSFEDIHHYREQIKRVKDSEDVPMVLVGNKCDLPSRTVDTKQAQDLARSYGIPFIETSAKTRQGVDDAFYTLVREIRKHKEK
Chain of KRAS G12V (P62937 whole entry): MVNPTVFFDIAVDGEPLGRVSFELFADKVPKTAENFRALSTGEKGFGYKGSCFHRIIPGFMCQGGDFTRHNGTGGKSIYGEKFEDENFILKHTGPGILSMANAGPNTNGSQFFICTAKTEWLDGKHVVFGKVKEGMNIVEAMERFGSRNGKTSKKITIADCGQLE
Outline: as §1

[3] = target: KRAS G12C (Homo sapiens, UniProt P01116+P62937, G12C); assay: as above; assay type: biochemical
Chain of KRAS G12C (P01116 1-169 isoform P01116-2 G12C): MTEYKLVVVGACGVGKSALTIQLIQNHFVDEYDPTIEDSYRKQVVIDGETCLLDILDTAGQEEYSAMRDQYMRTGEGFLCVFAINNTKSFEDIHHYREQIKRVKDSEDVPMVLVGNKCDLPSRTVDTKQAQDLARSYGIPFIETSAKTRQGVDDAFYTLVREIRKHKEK
Chain of KRAS G12C (P62937 whole entry): as the sequence (P62937 whole entry) above
Outline: as §1

[4] = target: KRAS WT (Homo sapiens, UniProt P01116+P62937); assay: as above; assay type: biochemical
Chain of KRAS WT (P01116 1-169 isoform P01116-2 limits assumed): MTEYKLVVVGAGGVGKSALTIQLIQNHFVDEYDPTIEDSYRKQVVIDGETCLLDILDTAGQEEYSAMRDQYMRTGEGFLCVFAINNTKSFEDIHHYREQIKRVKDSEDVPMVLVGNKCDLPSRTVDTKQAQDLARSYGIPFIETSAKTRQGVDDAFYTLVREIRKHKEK
Chain of KRAS WT (P62937 whole entry): as the sequence (P62937 whole entry) above
Outline: as §1

[5] = target: KRAS G12D (Homo sapiens, UniProt P01116+P62937, G12D); assay: as above; assay type: biochemical
Chain of KRAS G12D (P01116 1-169 isoform P01116-2 G12D limits assumed): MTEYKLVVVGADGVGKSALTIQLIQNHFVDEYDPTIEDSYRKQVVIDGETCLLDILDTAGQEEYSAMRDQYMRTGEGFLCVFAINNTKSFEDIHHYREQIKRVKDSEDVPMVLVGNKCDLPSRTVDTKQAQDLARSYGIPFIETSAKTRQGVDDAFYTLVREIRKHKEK
Chain of KRAS G12D (P62937 whole entry): as the sequence (P62937 whole entry) above
Outline: as §1

[6] = target: KRAS G13C (Homo sapiens, UniProt P01116+P62937, G13C); assay: as above; assay type: biochemical
Chain of KRAS G13C (P01116 1-169 isoform P01116-2 G13C): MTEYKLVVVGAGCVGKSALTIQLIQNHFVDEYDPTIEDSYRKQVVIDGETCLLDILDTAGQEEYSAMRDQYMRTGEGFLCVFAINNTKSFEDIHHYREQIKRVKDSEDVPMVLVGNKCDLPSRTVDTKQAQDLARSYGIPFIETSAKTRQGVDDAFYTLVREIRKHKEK
Chain of KRAS G13C (P62937 whole entry): as the sequence (P62937 whole entry) above
Outline: as §1

[7] = target: NRAS G12C (Homo sapiens, UniProt P01111+P62937, G12C); assay: as above; assay type: biochemical
Chain of NRAS G12C (P01111 whole entry G12C): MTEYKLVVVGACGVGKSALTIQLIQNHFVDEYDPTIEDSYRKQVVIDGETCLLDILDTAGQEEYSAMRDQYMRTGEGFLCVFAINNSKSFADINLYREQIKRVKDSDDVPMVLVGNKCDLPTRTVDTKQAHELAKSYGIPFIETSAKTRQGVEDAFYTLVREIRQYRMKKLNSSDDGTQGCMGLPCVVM
Chain of NRAS G12C (P62937 whole entry): as the sequence (P62937 whole entry) above

[8] = target: KRAS G12S (Homo sapiens, UniProt P01116+P62937, G12S); assay: as above; assay type: biochemical
Chain of KRAS G12S (P01116 1-169 isoform P01116-2 G12S limits assumed): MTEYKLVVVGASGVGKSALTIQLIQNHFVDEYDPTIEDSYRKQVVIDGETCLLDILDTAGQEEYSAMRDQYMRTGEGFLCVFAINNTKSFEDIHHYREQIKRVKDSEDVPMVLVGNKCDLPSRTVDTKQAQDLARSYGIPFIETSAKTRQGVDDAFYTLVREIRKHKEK
Chain of KRAS G12S (P62937 whole entry): as the sequence (P62937 whole entry) above
Outline: as §1

[9] = system: Capan-1 (K-Ras G12V); assay: CellTiter-Glo cell viability assay, 5-day treatment; assay type: cell-based; details: Homo sapiens, CAPAN-1, 120 h, 5-day treatment; read-out: Capan-1 Cell Viability assay data (K-Ras G12V, IC50)
Outline: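 Seeded cells received test compound by direct dispensing. On day 5 the plates sat at room temperature approximately 30 minutes, then luminescence was measured. Data were normalized to DMSO and curve-fitted with four parameters.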

[10] = KRAS G13D, read-out: KRAS G13D FRET data IC50
[11] = KRAS G12V, read-out: KRAS G12V FRET data IC50
[12] = read-out: KRAS G12C FRET data, IC50
[13] = KRAS WT, read-out: KRAS WT FRET data IC50
[14] = read-out: KRAS G12D FRET data, IC50
[15] = read-out: KRAS G13C FRET data, IC50
[16] = NRAS G12C, read-out: NRAS G12C FRET data IC50
[17] = read-out: KRAS G12S FRET data, IC50

Chain of KRAS G13D (P01116 1-169 isoform P01116-2 G13D limits assumed): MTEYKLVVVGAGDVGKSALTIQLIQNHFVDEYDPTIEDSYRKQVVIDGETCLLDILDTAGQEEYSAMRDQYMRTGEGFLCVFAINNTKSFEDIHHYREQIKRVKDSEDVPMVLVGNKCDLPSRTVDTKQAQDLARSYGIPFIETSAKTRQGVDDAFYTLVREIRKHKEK
Chain of KRAS G13D (P62937 whole entry): as the sequence (P62937 whole entry) above

SMILES | IC50 [1, 10] | IC50 [2, 11] | IC50 [3, 12] | IC50 [4, 13] | IC50 [5, 14] | IC50 [6, 15] | IC50 [7, 16] | IC50 [8, 17] | IC50 [9] | IC50 ([1]; KRAS G13D FRET data IC50, KRAS G13D) | IC50 ([2]; KRAS G12V FRET data IC50, KRAS G12V) | IC50 ([3]; KRAS G12C FRET data, IC50) | IC50 ([4]; KRAS WT FRET data IC50, KRAS WT) | IC50 ([5]; KRAS G12D FRET data, IC50) | IC50 ([6]; KRAS G13C FRET data, IC50) | IC50 ([7]; NRAS G12C FRET data IC50, NRAS G12C) | IC50 ([8]; KRAS G12S FRET data, IC50)
CCn1c(-c2cccnc2[C@H](C)OC)c2c3cc(ccc31)-c1csc(n1)C[C@H](NC(=O)[C@H](C(C)C)N(C)C(=O)[C@H]1CCN(C(=O)CN)C1)C(=O)N1CCC[C@H](N1)C(=O)OCC(C)(C)C2 [Example A106] | 1000 to 10000 nM | 1000 to 10000 nM | 100 to 1000 nM | 100 to 1000 nM | 100 to 1000 nM | 100 to 1000 nM | 100 to 1000 nM | 1000 to 10000 nM | 1000 to 10000 nM |  |  |  |  |  |  |  | 
CCn1c(-c2cccnc2[C@H](C)OC)c2c3cc(ccc31)-c1csc(n1)C[C@H](NC(=O)[C@H](C(C)C)N(C)C(=O)[C@H]1CCN(C)C1)C(=O)N1CCC[C@H](N1)C(=O)OCC(C)(C)C2 [Example A108] | 1000 to 10000 nM | > 10000 nM | 1000 to 10000 nM | 1000 to 10000 nM | 1000 to 10000 nM | 1000 to 10000 nM | 1000 to 10000 nM | 1000 to 10000 nM | > 10000 nM |  |  |  |  |  |  |  | 
CCn1c(-c2cccnc2[C@H](C)OC)c2c3cc(ccc31)-c1cccc(c1)C[C@H](NC(=O)[C@H](C(C)C)N(C)C(=O)[C@H]1CCN(CCO)C1)C(=O)N1CCC[C@H](N1)C(=O)OCC(C)(C)C2 [Example A109] | 1000 to 10000 nM | > 10000 nM | 1000 to 10000 nM | 1000 to 10000 nM | 1000 to 10000 nM | 100 to 1000 nM | 1000 to 10000 nM | 1000 to 10000 nM | > 10000 nM |  |  |  |  |  |  |  | 
CCn1c(-c2cccnc2[C@H](C)OC)c2c3cc(ccc31)-c1cccc(c1)C[C@H](NC(=O)[C@H](C(C)C)N(C)C(=O)[C@H]1CCN(C(=O)C(C)(C)N(C)C)C1)C(=O)N1CCC[C@H](N1)C(=O)OCC(C)(C)C2 [Example A112] | 1000 to 10000 nM | 1000 to 10000 nM | 1000 to 10000 nM | 1000 to 10000 nM | 1000 to 10000 nM | 1000 to 10000 nM | 1000 to 10000 nM | 1000 to 10000 nM | 1000 to 10000 nM |  |  |  |  |  |  |  | 
CCn1c(-c2cccnc2[C@H](C)OC)c2c3cc(ccc31)-c1csc(n1)C[C@H](NC(=O)[C@H](C(C)C)N(C)C(=O)[C@H]1CCN(C(=O)C(C)(C)N(C)C)C1)C(=O)N1CCC[C@H](N1)C(=O)OCC(C)(C)C2 [Example A113] | 1000 to 10000 nM | 1000 to 10000 nM | 1000 to 10000 nM | 1000 to 10000 nM | 1000 to 10000 nM | 1000 to 10000 nM | 1000 to 10000 nM | 1000 to 10000 nM | 1000 to 10000 nM |  |  |  |  |  |  |  | 
CCn1c(-c2cccnc2[C@H](C)OC)c2c3cc(ccc31)-c1cc(O)cc(c1)C[C@H](NC(=O)[C@H](C(C)C)N(C)C(=O)C1CCNCC1)C(=O)N1CCC[C@H](N1)C(=O)OCC(C)(C)C2 [Example A122] |  |  |  |  |  |  |  |  | > 10000 nM | 100 to 1000 nM | 1000 to 10000 nM | 100 to 1000 nM | 100 to 1000 nM | 100 to 1000 nM | 100 to 1000 nM | 100 to 1000 nM | 100 to 1000 nM
CCn1c(-c2cccnc2[C@H](C)OC)c2c3cc(ccc31)-c1cc(O)cc(c1)C[C@H](NC(=O)[C@H](C(C)C)N(C)C(=O)[C@H]1CCN(C(=O)[C@@]3(C)CCCN3)C1)C(=O)N1CCC[C@H](N1)C(=O)OCC(C)(C)C2 [Example A135] | 10 to 100 nM | 10 to 100 nM | 10 to 100 nM | 10 to 100 nM | 10 to 100 nM | 10 to 100 nM | 10 to 100 nM | 10 to 100 nM | 1000 to 10000 nM |  |  |  |  |  |  |  | 
C=C[C@@H]1C[C@]1(N)C(=O)N(C)[C@H](C(=O)N[C@H]1Cc2cc(O)cc(c2)-c2ccc3c(c2)c(c(-c2cccnc2[C@H](C)OC)n3CC)CC(C)(C)COC(=O)[C@@H]2CCCN(N2)C1=O)C(C)C [Example A149] | 100 to 1000 nM | 100 to 1000 nM | 10 to 100 nM | 10 to 100 nM | 100 to 1000 nM | 10 to 100 nM | 100 to 1000 nM | 100 to 1000 nM | 1000 to 10000 nM |  |  |  |  |  |  |  | 
CCn1c(-c2cccnc2[C@H](C)OC)c2c3cc(ccc31)-c1cc(O)cc(c1)C[C@H](NC(=O)[C@H](C(C)C)N(C)C(=O)C1CC13CCNCC3)C(=O)N1CCC[C@H](N1)C(=O)OCC(C)(C)C2 (stereo partly drawn) [Example A151] | 10 to 100 nM | 100 to 1000 nM | 10 to 100 nM | 10 to 100 nM | 100 to 1000 nM | 10 to 100 nM | 10 to 100 nM | 100 to 1000 nM | > 10000 nM |  |  |  |  |  |  |  | 
